How the values were obtained:
Huh-7 = assay: (§1) Cytotoxicity against human Huh-7 cells assessed as reduction in cell viability; format: toxicity, cell-based; settings: huh-7
[1] = Metabolic stability in human liver microsomes assessed as half life at 1 uM incubated for 90 mins in presence of ritonavir at 1:10 combination by LC-MS/MS analysis; format: ADME, Microsome; settings: 1.5 h
SARS-CoV-2 [2] = assay: Antiviral activity against SARS-CoV-2 infected in human Calu-3 cells assessed as reduction in viral yield measured after 72 hrs by qRT-PCR analysis; format: functional, organism-based, Severe acute respiratory syndrome coronavirus 2; settings: for EC90: Severe acute respiratory syndrome coronavirus 2, Calu-3, time 72 hrs
[3] = Solubility of compound in PBS; format: physicochemical; settings: buffer
[4] = biological target: Replicase polyprotein 1ab (Severe acute respiratory syndrome coronavirus 2) (UniProt P0DTD1); settings: time 60.0 min
Human coronavirus OC43 = assay: Antiviral activity against Human coronavirus OC43 infected in Vero cells assessed as reduction in viral yield preincubated with virus for 1 hr followed by washout and compound treatment and measured after 3 days by qRT-PCR analysis; format: functional, organism-based; settings: Betacoronavirus 1, Vero; for EC90: 72 h, time 3 day
SARS-CoV-2 [5] = assay: Antiviral activity against SARS-CoV-2 hCoV-19/USA/GA-EHC-2811C/2021 (Omicron B.1.1.529) infected in human Calu-3 cells assessed as reduction in viral yield measured after 48 hrs by qRT-PCR analysis; format: functional, organism-based; settings: Severe acute respiratory syndrome coronavirus 2, hCoV-19/USA/GA-EHC-2811C/2021 (Omicron B.1.1.529); for EC50: Calu-3, 48 h; for EC90: Calu-3, time 48 hrs
[6] = biological target: Replicase polyprotein 1ab (Severe acute respiratory syndrome coronavirus 2) (UniProt P0DTD1); assay: Potency index, ratio of nirmatrelvir IC50 to test compound IC50 for inhibition of amino-terminal His-SUMO tagged SARS-CoV-2 3CLpro using HilyteFluor 488-Glu-Ser-Ala-Thr-Leu-Gln-Ser-Gly-Leu-Arg-Lys-Ala-Lys-QXL 520 as FRET peptide substrate preincubated for 90 mins followed by substrate addition and measured over 30 mins by continuous FRET assay; settings: time > 120.0 min
[7] = biological target: Replicase polyprotein 1ab (Severe acute respiratory syndrome coronavirus 2, UniProt P0DTD1); assay: Inhibition of amino-terminal His-SUMO tagged SARS-CoV-2 3CLpro using HilyteFluor 488-Glu-Ser-Ala-Thr-Leu-Gln-Ser-Gly-Leu-Arg-Lys-Ala-Lys-QXL 520 as FRET peptide substrate preincubated for 90 mins followed by substrate addition and measured over 30 mins by continuous FRET assay
[8] = biological target: Replicase polyprotein 1ab (Severe acute respiratory syndrome coronavirus 2) (UniProt P0DTD1); settings: time 60.0 min; remark: listed apart in the source
SARS-CoV-2 [9] = assay: Selectivity ratio of EC50 for antiviral activity against SARS-CoV-2 infected in Vero cells to EC50 for antiviral activity against SARS-CoV-2 infected in human Caco-2 cells; format: functional, Severe acute respiratory syndrome coronavirus 2
[10] = Cytotoxicity against human PBMC cells assessed as reduction in cell viability; format: toxicity, cell-based
[11] = Metabolic stability in human liver microsomes assessed as half life at 1 uM incubated for 90 mins in presence of ritonavir at 1:1 combination by LC-MS/MS analysis; format: ADME, Microsome; settings: 1.5 h
SARS-CoV-2 [12] = assay: Selectivity ratio of EC50 for antiviral activity against SARS-CoV-2 infected in Vero cells to EC50 for antiviral activity against SARS-CoV-2 infected in human Calu-3 cells; format: functional, Severe acute respiratory syndrome coronavirus 2
SARS-CoV-2 [13] = assay: Antiviral activity against wild type SARS-CoV-2 WA1 infected in HEK293T cells measured after 48 hrs by Nano-Glo luciferase assay; format: functional, organism-based; settings: Severe acute respiratory syndrome coronavirus 2, WA1, HEK-293T
[14] = Cytotoxicity against African green monkey Vero cells assessed as reduction in cell viability; format: toxicity, cell-based; settings: chlorocebus sabaeus
[15] = biological target: Replicase polyprotein 1ab (Severe acute respiratory syndrome coronavirus 2) (UniProt P0DTD1); assay: Binding affinity to SARS-CoV-2 3CLpro assessed as thermal stabilization by measuring fold increase in melting temperature incubated for 60 mins by SYPRO orange dye based thermal shift assay relative to nirmatrelvir
CCRF-CEM = assay: (§2) Cytotoxicity against human CEM cells assessed as reduction in cell viability; format: toxicity, cell-based; settings: ccrf-cem
[16] = Metabolic stability in human liver microsomes assessed as reduction in decay rate at 1 uM incubated for 90 mins in presence of ritonavir by LC-MS/MS analysis; format: ADME, Microsome; settings: 1.5 h
[17] = Metabolic stability in human liver microsomes assessed as half life at 1 uM measured after 0 to 90 mins by LC-MS/MS analysis; format: ADME, Microsome; settings: time 0-90 min
SARS-CoV-2 [18] = assay: Antiviral activity against SARS-CoV-2 infected in Vero cells assessed as reduction in viral yield measured after 48 hrs by qRT-PCR analysis; format: functional, organism-based; settings: Severe acute respiratory syndrome coronavirus 2, Vero; for EC50: 48 h; for EC90: time 48 hrs
Calu-3 = assay: (§3) Cytotoxicity against human Calu-3 cells assessed as reduction in cell viability; format: toxicity, cell-based; settings: calu-3
SARS-CoV-2 [19] = assay: Antiviral activity against SARS-CoV-2 hCoV-19/USA-WA1/2020 Washington strain infected in Normal human bronchial/tracheal epithelial cells cultured in air-liquid interface media assessed as reduction in viral yield pretreated with compound followed by viral infection for 4 hrs post washout and measured 3 days after virus removal by qRT-PCR analysis; format: functional, organism-based; settings: Severe acute respiratory syndrome coronavirus 2, hCoV-19/USA-WA1/2020 Washington, Epithelial cell
SARS-CoV-2 [20] = assay: Antiviral activity against wild type SARS-CoV-2 Omicron BA.1 infected in HEK293T cells measured after 48 hrs by Nano-Glo luciferase assay; format: functional, organism-based; settings: Severe acute respiratory syndrome coronavirus 2, Omicron BA.1, HEK-293T
SARS-CoV-2 [21] = assay: Antiviral activity against SARS-CoV-2 infected in human Caco-2 cells assessed as reduction in viral yield measured after 72 hrs by qRT-PCR analysis; format: functional, organism-based, Severe acute respiratory syndrome coronavirus 2; settings: for EC90: Severe acute respiratory syndrome coronavirus 2, Caco-2, time 72 hrs
Caco-2 = assay: (§4) Cytotoxicity against human Caco-2 cells assessed as reduction in cell viability; format: toxicity, cell-based; settings: caco-2
[22] = as §1; format: toxicity, cell-based; settings: Huh-7 cells
[23] = as §2; format: toxicity, cell-based, CCRF-CEM; settings: CEM (CCRF-CEM) cells
[24] = as §3; format: toxicity, cell-based; settings: Calu-3 cells
[25] = as §4; format: toxicity, cell-based; settings: Caco-2 cells

Cc1cc(C(=O)N[C@@H](Cc2cccc3ccccc23)C(=O)N[C@@H](CC(C)C)C(=O)N[C@H](C=O)C[C@@H]2CCCNC2=O)no1
CC50 (Huh-7): 32.7 µM
t1/2 [1]: > 1.5 h
EC90 (SARS-CoV-2 [2]): 4.3 µM
solubility [3]: < 10 µg/mL
Tm [4]: 69.9 °C
EC50 (Human coronavirus OC43): 0.1 µM
EC90 (Human coronavirus OC43): 0.7 µM
EC50 (SARS-CoV-2 [5]): 1.1 µM
EC90 (SARS-CoV-2 [5]): 3.5 µM
Ratio IC50 [6]: 2
IC50 [7]: 0.166 µM
ΔTm [8]: 13.9 °C
Ratio EC50 (SARS-CoV-2 [9]): 15
CC50 ([10]; pbmc): 30.9 µM
t1/2 [11]: > 1.5 h
Ratio EC50 (SARS-CoV-2 [12]): 3
EC50 (SARS-CoV-2 [13]): 0.2 µM
CC50 ([14]; vero): 84.3 µM
fold change (FC) [15]: 2
CC50 (CCRF-CEM): 13.9 µM
Stability [16]: Stable
t1/2 [17]: < 5 min
EC50 (SARS-CoV-2 [18]): 4.6 µM
EC90 (SARS-CoV-2 [18]): 9 µM
CC50 (Calu-3): > 100 µM
EC50 (SARS-CoV-2 [19]): 0.6 µM
EC90 (SARS-CoV-2 [19]): 1.8 µM
EC50 (SARS-CoV-2 [20]): 0.32 µM
EC50 (SARS-CoV-2 [21]; Severe acute respiratory syndrome coronavirus 2, Caco-2, 72 h): 0.1 µM
EC90 (SARS-CoV-2 [21]): 1.2 µM
CC50 (Caco-2): > 100 µM

CC(C)C[C@H](NC(=O)[C@H](Cc1cccc2ccccc12)NC(=O)OCc1ccccc1)C(=O)N[C@H](C=O)C[C@@H]1CCCNC1=O
CC50 (Huh-7): 38.9 µM
EC50 (Human coronavirus OC43): 0.7 µM
EC90 (Human coronavirus OC43): 1 µM
CC50 ([10]; pbmc): 42.4 µM
CC50 ([14]; vero): > 100 µM
CC50 (CCRF-CEM): 24.3 µM
EC50 (SARS-CoV-2 [18]): 2.6 µM
EC90 (SARS-CoV-2 [18]): 5.9 µM

CC(C)C[C@H](NC(=O)[C@H](Cc1cccc2ccccc12)NC(=O)OCc1ccccc1)C(=O)N[C@H](C=O)Cn1ccnn1
CC50 (Huh-7): 25.3 µM
EC50 (Human coronavirus OC43): 53.5 µM
EC90 (Human coronavirus OC43): 99 µM
CC50 ([10]; pbmc): 35.7 µM
CC50 ([14]; vero): 35.7 µM
CC50 (CCRF-CEM): 25.3 µM
EC50 (SARS-CoV-2 [18]): 4.7 µM
EC90 (SARS-CoV-2 [18]): 9.5 µM

CCOC(=O)/C=C/[C@H](C[C@@H]1CCCNC1=O)NC(=O)[C@H](CC(C)C)NC(=O)[C@H](Cc1cccc2ccccc12)NC(=O)c1cc(C)on1
CC50 (Huh-7): 51.4 µM
EC50 (Human coronavirus OC43): 7.3 µM
EC90 (Human coronavirus OC43): 9.7 µM
CC50 ([10]; pbmc): > 100 µM
CC50 ([14]; vero): > 100 µM
CC50 (CCRF-CEM): 33.4 µM
EC50 (SARS-CoV-2 [18]): > 10 µM
EC90 (SARS-CoV-2 [18]): > 10 µM

CC(C)(C)[C@H](NC(=O)C(F)(F)F)C(=O)N1C[C@H]2[C@@H]([C@H]1C(=O)N[C@H](C#N)C[C@@H]1CCNC1=O)C2(C)C
CC50 [22]: > 100 µM
EC50 (SARS-CoV-2 [2]; Severe acute respiratory syndrome coronavirus 2, Calu-3, 72 h): 1.9 µM
EC90 (SARS-CoV-2 [2]): 7.6 µM
EC50 (Human coronavirus OC43): 0.2 µM
EC90 (Human coronavirus OC43): 0.3 µM
EC50 (SARS-CoV-2 [5]): 0.7 µM
EC90 (SARS-CoV-2 [5]): 5.3 µM
CC50 ([10]; PBMC cells): > 100 µM
EC50 (SARS-CoV-2 [13]): 0.034 µM
CC50 ([14]; Vero cells): > 100 µM
CC50 [23]: > 100 µM
EC50 (SARS-CoV-2 [18]): 3.7 µM
EC90 (SARS-CoV-2 [18]): 5.6 µM
CC50 [24]: > 100 µM
EC50 (SARS-CoV-2 [19]): 0.03 µM
EC90 (SARS-CoV-2 [19]): 0.2 µM
EC50 (SARS-CoV-2 [20]): 0.11 µM
EC90 (SARS-CoV-2 [21]): 0.3 µM
CC50 [25]: > 100 µM

Cc1ccsc1C(=O)N[C@@H](Cc1cccc2ccccc12)C(=O)N[C@@H](CC(C)C)C(=O)N[C@H](C=O)C[C@@H]1CCCNC1=O
CC50 (Huh-7): 35.1 µM
EC50 (Human coronavirus OC43): 0.3 µM
EC90 (Human coronavirus OC43): 0.8 µM
CC50 ([10]; pbmc): 51.5 µM
CC50 ([14]; vero): 53.1 µM
CC50 (CCRF-CEM): 16.3 µM
EC50 (SARS-CoV-2 [18]): 2.2 µM
EC90 (SARS-CoV-2 [18]): 4.8 µM

CC(C)C[C@H](NC(=O)[C@H](Cc1cccc2ccccc12)NC(=O)c1cc(C(F)(F)F)on1)C(=O)N[C@H](C=O)C[C@@H]1CCCNC1=O
CC50 (Huh-7): 42.5 µM
EC50 (Human coronavirus OC43): 0.7 µM
EC90 (Human coronavirus OC43): 1 µM
CC50 ([10]; pbmc): 49.9 µM
CC50 ([14]; vero): 49.9 µM
CC50 (CCRF-CEM): 20.3 µM
EC50 (SARS-CoV-2 [18]): 6.1 µM
EC90 (SARS-CoV-2 [18]): 9.9 µM

From ChEMBL document CHEMBL5505997, “Synthesis and biological evaluation of novel peptidomimetic inhibitors of the coronavirus 3C-like protease” (Eur J Med Chem, 2024)
